Assay results: publication PMC3179182 (Bioorganic & medicinal chemistry letters, 2010)

Tests used:
mGlu5 [1] = assay: mGlu5 assays; assay type: cell-based; details: mode of mGlu5 pharmacology (NAM, PAM, Ago-PAM, Part. Antag., Inactive)
mGlu5 [2] = biological target: T1, mGlu5 (Rattus norvegicus, UniProt P31424); assay: mGlu5 assays; assay type: cell-based; details: NAM IC50 relative to 8
mGlu5 [3] = biological target: T1, mGlu5; details: phenylethynyl pyrimidine series; cited from earlier work
mGlu5 [4] = details: % partial; cited from earlier work

T1 sequence (P31424 21-1203): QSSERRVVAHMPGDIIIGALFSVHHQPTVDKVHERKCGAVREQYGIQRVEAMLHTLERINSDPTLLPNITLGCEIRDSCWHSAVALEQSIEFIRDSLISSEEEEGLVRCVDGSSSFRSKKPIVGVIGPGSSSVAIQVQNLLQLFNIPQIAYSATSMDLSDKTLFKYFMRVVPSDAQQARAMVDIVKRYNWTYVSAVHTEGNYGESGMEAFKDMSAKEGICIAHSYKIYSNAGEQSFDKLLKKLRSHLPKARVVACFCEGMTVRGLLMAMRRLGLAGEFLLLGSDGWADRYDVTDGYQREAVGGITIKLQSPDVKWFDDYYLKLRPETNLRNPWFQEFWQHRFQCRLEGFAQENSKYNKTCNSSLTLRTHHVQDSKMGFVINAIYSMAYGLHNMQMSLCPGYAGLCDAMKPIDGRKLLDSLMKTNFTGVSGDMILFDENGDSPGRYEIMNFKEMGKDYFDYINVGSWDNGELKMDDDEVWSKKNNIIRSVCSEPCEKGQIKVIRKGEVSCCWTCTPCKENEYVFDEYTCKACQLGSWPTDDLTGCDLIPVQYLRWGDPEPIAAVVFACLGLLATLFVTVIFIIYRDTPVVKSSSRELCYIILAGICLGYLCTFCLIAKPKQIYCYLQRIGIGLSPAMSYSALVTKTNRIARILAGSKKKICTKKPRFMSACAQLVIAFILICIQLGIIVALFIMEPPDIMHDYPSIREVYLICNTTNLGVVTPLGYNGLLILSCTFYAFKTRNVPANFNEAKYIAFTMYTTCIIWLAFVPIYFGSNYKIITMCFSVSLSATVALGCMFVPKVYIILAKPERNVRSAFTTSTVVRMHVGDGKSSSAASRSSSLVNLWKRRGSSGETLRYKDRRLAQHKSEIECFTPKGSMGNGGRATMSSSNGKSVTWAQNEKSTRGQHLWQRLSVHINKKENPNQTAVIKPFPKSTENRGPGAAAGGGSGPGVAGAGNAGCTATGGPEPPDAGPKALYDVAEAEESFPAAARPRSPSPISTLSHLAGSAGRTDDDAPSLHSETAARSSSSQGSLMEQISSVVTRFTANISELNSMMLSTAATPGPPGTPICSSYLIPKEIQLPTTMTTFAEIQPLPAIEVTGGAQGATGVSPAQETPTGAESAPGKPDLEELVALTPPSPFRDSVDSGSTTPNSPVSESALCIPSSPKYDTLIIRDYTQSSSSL
T1 sequence (P31424 21-1203): as above

Compound | Pharmacology (mGlu5 [1]) | further results
O=C(C1CCC1)N1CCCC[C@@H]1c1nc(-c2cccc(F)c2)no1 [22b/20e] |  | Pharmacology (mGlu5 [1]; listed as 22b): pure PAM activity
O=C(C1CCC1)N1CCC[C@@H]1c1nc(-c2cccc(F)c2)no1 [(R)-23a] | potent mGlu5 PAM | 
O=C(C1CCC1)N1CCC[C@H](c2nc(-c3cccc(Cl)c3)no2)C1 [(S)-15e] |  | increase in potency over 8 (mGlu5 [2]): ~ 41 fold
O=C(C1CCC1)N1CCC[C@H]1c1nc(-c2cccc(F)c2)no1 [(S)-23a] | very weak PAM | 
Cc1cccc(C#Cc2cncnc2)c1 [compound 3] |  | IC50 (mGlu5 [3]): 7.5 nM
C(#Cc1cncnc1)c1ccccc1 [compound 2] |  | partial antagonism (mGlu5 [4]): 71%

Now from value to compound, other results behind:

Pharmacology (mGlu5 [1]) | Compound | further results
ago-PAMs | O=C(C1CCCC1)N1CCCC[C@@H]1c1nc(-c2cccc(F)c2)no1 [22c] | 
ago-PAMs | O=C(C1CC1)N1CCCC[C@@H]1c1nc(-c2cccc(F)c2)no1 [22a] | 
partial antagonists | Cc1cccc(-c2noc([C@H]3CCCCN3C(=O)C3CCCC3)n2)c1 [21c] | 
full non-competitive antagonists (NAMs) | Cc1cccc(-c2noc([C@H]3CCCCN3C(=O)C3CCCCC3)n2)c1 [21d] | 
low micromolar PAMs | O=C(C1CCC1)N1CCCC1c1nc(-c2cccc(F)c2)no1 (stereo not shown) [23a] | 
pure PAM activity | O=C(C1CCCCC1)N1CCCC[C@@H]1c1nc(-c2cccc(F)c2)no1 [22d] | 
low micromolar PAMs | O=C(C1CCC1)N1CCCC1c1nc(-c2ccc(F)cc2)no1 (stereo not shown) [23b] | 
